The target of one assay is T1, RhlR (T58F) (Pseudomonas aeruginosa, UniProt P54292, T58F).
T1 construct: expressed in transfected cells; host or cells: E. coli carrying pBAD-A-rhlR mutant, pCS26-prhlA-luxCDABE and pACYC-pqsE or empty pACYC
T1 sequence (P54292 1-241 T58F): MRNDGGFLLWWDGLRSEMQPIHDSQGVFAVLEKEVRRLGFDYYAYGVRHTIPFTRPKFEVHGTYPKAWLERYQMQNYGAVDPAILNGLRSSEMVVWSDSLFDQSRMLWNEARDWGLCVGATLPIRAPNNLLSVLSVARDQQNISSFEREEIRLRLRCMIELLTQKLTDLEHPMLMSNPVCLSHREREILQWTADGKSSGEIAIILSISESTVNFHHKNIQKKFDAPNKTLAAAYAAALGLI
Kind of assay: E. coli prhlA-luxCDABE luciferase reporter assay. Format: cell-based, Escherichia coli. From the text: (§1) Previous analysis of the RhlR LBP focused on highly conserved residues that were known from other AHL-binding proteins to be important contacts for AHL molecules, particularly the lactone head group. We performed conservation analyses on 300 LuxR-type receptors to determine variable and moderately conserved residues in the LBP (Fig. 1B) and, in conjunction with our previously determined experimental structure of WT RhlR bound to the synthetic agonist mBTL, used for docking C4- and C6HSL. Based on our docking simulations, C4- and C6HSL occupy a similar position in the LBP as mBTL, a highly efficacious activator of RhlR (Fig. 1C; Fig. S1). We targeted residues A44, G46, T58, L69, Y72, D81, I84, W96, and W108 (Fig. 1B and C). These residues were selected because of their proximity to the acyl tail of C4HSL, as well as the differences in conservation that are observed at these sites. We used an E. coli luciferase reporter assay to monitor ligand-dependent activation of WT RhlR and RhlR variants. WT RhlR and RhlR variants were expressed under the control of an arabinose-inducible promoter (Fig. S2). Transcription was monitored by light production via the expression of the luxCDABE operon controlled by the RhlR-dependent promoter of rhlA. Binding of RhlR to the rhlA promoter is highly dependent on the C4HSL-RhlR interaction, based on ChIP-seq analyses performed in P. aeruginosa as well as previously published E. coli reporter systems ([34], [39]). After expressing WT RhlR and RhlR variants in the E. coli reporter system, we performed dose response assays using C4HSL to calculate the concentration of C4HSL required to activate the reporter system to 50% maximum levels (EC50 value; Table 1). As expected, transcription activation by WT RhlR increased with increased C4HSL levels, with an EC50 value of ~2 µM. We observed a range of responses. Figure 1C depicts the targeted residues, which are colored based on the effect of amino acid substitution.
(§2) RhlR requires the accessory-binding protein, PqsE, for maximal activity. To determine if PqsE expression altered the activation of RhlR variants, we assessed AHL-dependent RhlR activation of the prhlA-luxCDABE reporter in the presence of a third plasmid that constitutively expresses PqsE in E. coli. […] RhlR variants that were still active but with increased EC50 values for C4HSL could have their activity enhanced by PqsE. […] Thus, alterations to the LBP can diminish the additive effect of PqsE-dependent transcription, indicating a potential role of allosteric conformational changes dependent on ligand occupancy. […] RhlR variants at residues I84 and W108 could not be activated by C4HSL, and thus, light levels remained low at all concentrations that were tested. Unlike the aforementioned variants, RhlR I84M/W and RhlR W108F/Y were activated by the expression of PqsE (Fig. S4).
(§3) All E. coli strains in this study were grown overnight with shaking in 5 mL Luria-Bertani (LB) media supplemented with 100 µg/mL ampicillin, 50 µg/mL kanamycin, and 15 µg/mL tetracycline at 37°C overnight. Overnight cultures were diluted 1:100 into fresh media, grown at 37°C with shaking for 2 h until reaching OD600 = 0.4. Cultures were induced with a final concentration of 0.1% arabinose, and 198 μL of the induced culture was mixed with 2 μL of C4HSL dilutions in a clear-bottom, black-opaque 96-well plate (Corning) and grown at 37°C with shaking for 4 h. The C4HSL dilution series was performed 1:1 in dimethyl sulfoxide (DMSO) with a top final concentration of 10 μM. Luminescence and optical density were recorded using a Glomax (Promega) plate reader.

The next assay concerns the target T2, RhlR (T58L) (Pseudomonas aeruginosa, UniProt P54292, T58L).
T2 construct: expressed in transfected cells; host or cells: E. coli carrying pBAD-A-rhlR mutant, pCS26-prhlA-luxCDABE and pACYC-pqsE or empty pACYC
T2 sequence (P54292 1-241 T58L): T1 sequence (P54292 1-241 T58F) with F58L
Nature of the assay: E. coli prhlA-luxCDABE luciferase reporter assay. Format: cell-based, Escherichia coli.
Text: as §1, §2, §3
(Reporter assays use an easily measured gene product as a stand-in for the process of interest.)

In a further assay the target is T3, RhlR (T58I) (Pseudomonas aeruginosa, UniProt P54292, T58I).
T3 construct: expressed in transfected cells; host or cells: E. coli carrying pBAD-A-rhlR mutant, pCS26-prhlA-luxCDABE and pACYC-pqsE or empty pACYC
T3 sequence (P54292 1-241 T58I): T1 sequence (P54292 1-241 T58F) with F58I
Nature of the assay: E. coli prhlA-luxCDABE luciferase reporter assay. It counts as cell-based, Escherichia coli.
Text: as §1, §2, §3

A further assay concerns RhlR. Details: method as in PMID 28119451. The following applies: cited from earlier work.

Numbering of substitutions follows the chain as printed.

Take `CCCC(=O)N[C@H]1CCOC1=O` [C4HSL, N-butyryl-L-homoserine lactone]: the half-maximal effective concentration (EC50) stood at 3210 nM at RhlR (T58F) (Vector (no pqsE)); 198 nM at RhlR (T58F) (pqsE co-expressed); 854 nM at RhlR (T58L) (Vector (no pqsE)); 99 nM on RhlR (T58L) (pqsE co-expressed); 1820 nM on RhlR (T58I) (Vector (no pqsE)); 120 nM on RhlR (T58I) (pqsE co-expressed). In the assay on RhlR, the 50% effective concentration (EC50) is about 5000 nM.

What is called EC50 is the concentration that produces a half-maximal response.

Source of the values: PMC13192270, “RhlR quorum-sensing receptor ligand sensitivity regulates the differential expression of phenazine genes in Pseudomonas aeruginosa” (Journal of Bacteriology, 2026).
